Measurements taken from ChEMBL document CHEMBL1201862, “PubChem BioAssay data set” (2004).
“And” between values parts separate entries of the source, which are not always exact repeats. Identical values can stand only once.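 Dose response: 5 concentrations. Exposure: 48 h. Format: 96-well plates. Endpoint: linear interpolation; highest concentration if not reached. The concentration for 50% growth inhibition is given as GI50.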 The source made the active and inactive calls. Rule as the data show it: active = GI50 up to about 1.1 µM and inactive = higher.

How the values were obtained:
Assay in all cases: NCI anticancer screen, dose series, 48 h
Malme-3M = test system: Malme-3M
M14 = test system: M14
LOX IMVI = test system: LOX IMVI
IGROV-1 = test system: IGROV-1
OVCAR-8 = test system: OVCAR-8
UACC-257 = test system: UACC-257
SW-620 = test system: SW-620
SK-OV-3 = test system: SK-OV-3
ACHN = test system: ACHN
MCF7 = test system: MCF7
A498 = test system: A498
NCI-H460 = test system: NCI-H460
SN12C = test system: SN12C
HCC 2998 = test system: HCC 2998
NCI-H226 = test system: NCI-H226
HOP-62 = test system: HOP-62
SNB-75 = test system: SNB-75
MDA-N = test system: MDA-N
MOLT-4 = test system: MOLT-4
SF-539 = test system: SF-539

Measured: GI50

O=C1Nc2ccccc2C1(O)Cc1ccccn1 (stereo not drawn)
inactive: Malme-3M > 100 µM | M14 > 100 µM | LOX IMVI > 100 µM | IGROV-1 > 100 µM | OVCAR-8 > 100 µM | UACC-257 > 100 µM | SW-620 > 100 µM | SK-OV-3 > 100 µM | ACHN > 100 µM | MCF7 > 100 µM | A498 > 100 µM | NCI-H460 > 100 µM | SN12C > 100 µM | HCC 2998 > 100 µM | NCI-H226 > 100 µM | HOP-62 > 100 µM | SNB-75 43.1 µM | MDA-N > 100 µM

CSC(=O)c1sc(SC)[n+](-c2ccccc2)c1O
inactive: Malme-3M 21.6 µM | M14 14.3 µM | MOLT-4 11.1 µM | LOX IMVI 12.6 µM | IGROV-1 19.2 µM | OVCAR-8 22.8 µM | SW-620 15.5 µM | SK-OV-3 34.4 µM | ACHN 27.9 µM | MCF7 25.4 µM | A498 30.1 µM | NCI-H460 27.9 µM | SN12C 19.6 µM | HCC 2998 19.6 µM | NCI-H226 22.5 µM | SF-539 15.1 µM | HOP-62 17 µM | SNB-75 13.1 µM | MDA-N 17 µM

Cc1ccc(N2C=Nn3c(nc4sc5c(c4c3=O)CCCC5)C2)cc1
inactive: Malme-3M 49.4 µM | M14 65.5 µM | MOLT-4 > 100 µM | LOX IMVI 47.4 µM | IGROV-1 88.3 µM | OVCAR-8 62.1 µM | UACC-257 54.8 µM | SW-620 51.8 µM | SK-OV-3 > 100 µM | ACHN 46.5 µM | MCF7 38.3 µM | A498 54.5 µM | NCI-H460 50.1 µM | SN12C 63.8 µM | HCC 2998 39.9 µM | NCI-H226 55 µM | HOP-62 21.2 µM | SNB-75 52 µM | MDA-N 70.5 µM

CN(C(=O)Cc1ccc(Cl)c(Cl)c1)[C@@H]1CCCC[C@H]1[N+]1(C)CC=CC1
inactive: Malme-3M > 100 µM | M14 > 100 µM | MOLT-4 > 100 µM | LOX IMVI > 100 µM | IGROV-1 > 100 µM | OVCAR-8 > 100 µM | UACC-257 > 100 µM | SW-620 > 100 µM | SK-OV-3 > 100 µM | ACHN > 100 µM | MCF7 > 100 µM | A498 > 100 µM | SN12C > 100 µM | HCC 2998 > 100 µM | NCI-H226 > 100 µM | HOP-62 > 100 µM | MDA-N > 100 µM

Cc1ccc(/C=C2\CCS(=O)(=O)c3ccccc3C2=O)cc1
inactive: M14 26.1 µM | MOLT-4 9.1 µM | LOX IMVI 15.2 µM | IGROV-1 11.4 µM | OVCAR-8 13.9 µM | UACC-257 18.5 µM | SW-620 18.1 µM | SK-OV-3 21.7 µM | ACHN 15.2 µM | MCF7 11.9 µM | A498 21.2 µM | NCI-H460 14.8 µM | SN12C 19.1 µM | HCC 2998 14.7 µM | NCI-H226 16.6 µM | SF-539 12.7 µM | HOP-62 26.7 µM | SNB-75 16.7 µM | MDA-N 28 µM

C=CCN(c1cc(OC)c2c(c1[N+](=O)[O-])C(C)(SC)C(=O)N2)S(C)(=O)=O (stereo not drawn)
inactive: Malme-3M 97.5 µM | LOX IMVI > 100 µM | IGROV-1 > 100 µM | OVCAR-8 > 100 µM | UACC-257 > 100 µM | SW-620 > 100 µM | SK-OV-3 > 100 µM | ACHN > 100 µM | MCF7 > 100 µM | A498 > 100 µM | NCI-H460 > 100 µM | SN12C > 100 µM | HCC 2998 65.5 µM | NCI-H226 > 100 µM | SF-539 > 100 µM | SNB-75 91.6 µM | MDA-N > 100 µM

CSc1c(C#N)c(N)n(-c2ccc(Cl)cc2)c(=O)c1C#N
inactive: Malme-3M > 100 µM | M14 > 100 µM | MOLT-4 61.4 µM | LOX IMVI > 100 µM | IGROV-1 > 100 µM | OVCAR-8 67.8 µM | UACC-257 > 100 µM | SW-620 > 100 µM | SK-OV-3 > 100 µM | MCF7 > 100 µM | A498 > 100 µM | NCI-H460 > 100 µM | SN12C > 100 µM | HCC 2998 > 100 µM | NCI-H226 59.7 µM | SF-539 > 100 µM | SNB-75 78 µM | MDA-N > 100 µM

CN1CC[C@]2(c3cccc(O)c3)CC(=O)/C(=C/c3ccc(Cl)c(Cl)c3)[C@@H]1C2
inactive: Malme-3M 1.45 µM | M14 1.15 µM | IGROV-1 1.88 µM | OVCAR-8 1.49 µM | UACC-257 1.49 µM | SW-620 1.14 µM | ACHN 1.15 µM | MCF7 1.29 µM | A498 1.63 µM | NCI-H460 1.28 µM | HCC 2998 1.41 µM | NCI-H226 2.34 µM | SF-539 2.5 µM
active: MOLT-4 0.273 µM | LOX IMVI 0.175 µM | SN12C 1.04 µM | SNB-75 0.455 µM | MDA-N 0.552 µM

O=C1Nc2ccccc2/C1=C\c1c(Cl)[nH]c2ccccc12
inactive: OVCAR-8 2.42 µM | UACC-257 1.59 µM | ACHN 1.3 µM | A498 1.15 µM | SN12C 2.85 µM | NCI-H226 3.65 µM
active: Malme-3M 0.631 µM | M14 0.873 µM | MOLT-4 0.522 µM | LOX IMVI 1.07 µM | IGROV-1 0.139 µM | SW-620 0.516 µM | SK-OV-3 0.32 µM | MCF7 0.366 µM | NCI-H460 0.597 µM | HCC 2998 0.416 µM | SF-539 0.374 µM | HOP-62 0.787 µM | MDA-N 0.24 µM

Clc1n[nH]c2ccccc12
inactive: Malme-3M > 100 µM | M14 > 100 µM | MOLT-4 > 100 µM | IGROV-1 > 100 µM | OVCAR-8 > 100 µM | UACC-257 > 100 µM | SW-620 > 100 µM | SK-OV-3 > 100 µM | ACHN > 100 µM | MCF7 > 100 µM | A498 > 100 µM | NCI-H460 > 100 µM | SN12C > 100 µM | HCC 2998 > 100 µM | NCI-H226 71 µM | SF-539 > 100 µM | HOP-62 > 100 µM | SNB-75 > 100 µM | MDA-N > 100 µM

O=c1c(Cl)c(Cl)cnn1-c1ccccc1
inactive: Malme-3M 3.46 µM and 3.02 µM | M14 1.74 µM and 1.76 µM | MOLT-4 1.82 µM and 1.47 µM | LOX IMVI 1.8 µM and 1.19 µM | OVCAR-8 3.85 µM and 2.39 µM | UACC-257 13 µM and 6.85 µM | ACHN 7.11 µM and 5.04 µM | MCF7 4.07 µM and 3.31 µM | A498 14.9 µM and 17.1 µM | NCI-H460 2.92 µM and 3.72 µM | SN12C 2.06 µM and 3.85 µM | HCC 2998 3.42 µM and 3.85 µM | NCI-H226 9.38 µM and 9.14 µM | HOP-62 15 µM and 8.49 µM | MDA-N 2.14 µM and 1.81 µM
